Assay results as given in patent US8188080B2 (Sanford-Burnham Medical Research Institute, priority 2007, dated 2012).
Where two headings read alike, the source gives them in different places.

Tests used:
Assay type in all cases: biochemical
[1] = molecular target: T1, HePTP (Homo sapiens, UniProt P35236); test: PTP-catalyzed hydrolysis of DiFMUP, IC50 determination (HePTP)
T1 sequence (P35236 1-360): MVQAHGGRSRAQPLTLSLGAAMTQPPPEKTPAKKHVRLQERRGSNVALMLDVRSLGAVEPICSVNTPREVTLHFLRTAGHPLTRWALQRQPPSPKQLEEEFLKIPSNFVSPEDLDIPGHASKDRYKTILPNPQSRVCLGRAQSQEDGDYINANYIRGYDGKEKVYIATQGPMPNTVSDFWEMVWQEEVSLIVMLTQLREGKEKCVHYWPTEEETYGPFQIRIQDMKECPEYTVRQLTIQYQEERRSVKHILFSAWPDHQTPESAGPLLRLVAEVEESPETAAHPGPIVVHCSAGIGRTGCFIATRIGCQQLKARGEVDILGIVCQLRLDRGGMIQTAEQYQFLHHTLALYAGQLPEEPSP
Experimental: (§1) The PTP-catalyzed hydrolysis of 6,8-difluoro-4-methylumbelliferyl phosphate (DiFMUP) in the presence of the test compound is assayed at 30° C. in a 60 μL 96 well format reaction system in 0.15 M Bis-Tris, pH 6.0 assay buffer having an ionic strength of 150 mM (adjusted with NaCl) and containing 1 mM dithiotreitol and 5% DMSO. At various concentrations of the compound, the initial rate at fixed DiFMUP concentration (equal to the corresponding Km value for each PTP) was determined using a FLx800 micro plate reader (Bio-Tek Instruments, Inc.), an excitation wave length of 360 nm and measuring the emission of the fluorescent reaction product 6,8-difluoro-7-hydroxy-4-methylcoumarin (DiFMU) at 460 nm. The nonenzymatic hydrolysis of the substrate was corrected by measuring the control without addition of enzyme. The IC50 value was determined by plotting the relative activity versus inhibitor concentrations and fitting to Equation 1 using the software GraphPad Prism™ (GraphPad Software, Inc.).
(§2) [formula] In this case, Vi, is the reaction velocity when the inhibitor concentration is [I], V0 is the reaction velocity with no inhibitor and IC50=Ki+Ki[S]/Km.

[2] = molecular target: T2, Cdc25A (Homo sapiens, UniProt P30304); test: PTP-catalyzed hydrolysis of DiFMUP, IC50 determination (Cdc25A)
T2 sequence (P30304 1-524): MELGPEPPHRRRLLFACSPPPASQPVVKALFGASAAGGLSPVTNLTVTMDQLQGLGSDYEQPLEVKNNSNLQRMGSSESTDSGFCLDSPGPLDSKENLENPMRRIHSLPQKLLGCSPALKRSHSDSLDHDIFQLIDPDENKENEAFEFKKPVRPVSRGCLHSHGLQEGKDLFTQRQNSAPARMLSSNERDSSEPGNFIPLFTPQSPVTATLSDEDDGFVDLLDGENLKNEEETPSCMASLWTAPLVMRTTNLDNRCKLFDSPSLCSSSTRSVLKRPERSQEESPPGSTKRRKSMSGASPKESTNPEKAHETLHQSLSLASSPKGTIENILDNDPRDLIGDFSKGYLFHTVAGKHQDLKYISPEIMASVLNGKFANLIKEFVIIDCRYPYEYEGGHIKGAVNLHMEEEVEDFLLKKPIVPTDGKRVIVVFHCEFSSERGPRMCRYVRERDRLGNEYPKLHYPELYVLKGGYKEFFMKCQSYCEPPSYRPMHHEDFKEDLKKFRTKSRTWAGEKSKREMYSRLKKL
Experimental: as §1, §2

[3] = molecular target: T3, PTP1B (Homo sapiens, UniProt P18031); test: PTP-catalyzed hydrolysis of DiFMUP, IC50 determination (PTP1B)
T3 sequence (P18031 1-435): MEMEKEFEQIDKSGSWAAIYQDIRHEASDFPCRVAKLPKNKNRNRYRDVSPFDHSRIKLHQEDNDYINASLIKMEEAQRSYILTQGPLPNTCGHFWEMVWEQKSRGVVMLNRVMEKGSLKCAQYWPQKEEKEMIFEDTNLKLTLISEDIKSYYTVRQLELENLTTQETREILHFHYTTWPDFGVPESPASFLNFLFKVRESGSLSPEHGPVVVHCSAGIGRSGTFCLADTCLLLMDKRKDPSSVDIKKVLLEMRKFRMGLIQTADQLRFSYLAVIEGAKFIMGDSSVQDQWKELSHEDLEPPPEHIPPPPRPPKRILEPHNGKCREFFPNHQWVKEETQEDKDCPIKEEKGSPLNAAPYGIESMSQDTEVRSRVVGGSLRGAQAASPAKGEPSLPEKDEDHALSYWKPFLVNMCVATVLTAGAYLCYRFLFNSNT
Experimental: as §1, §2

[4] = molecular target: T4, MKP-1 (Homo sapiens, UniProt P28562); test: PTP-catalyzed hydrolysis of DiFMUP, IC50 determination (MKP-1)
T4 sequence (P28562 1-367): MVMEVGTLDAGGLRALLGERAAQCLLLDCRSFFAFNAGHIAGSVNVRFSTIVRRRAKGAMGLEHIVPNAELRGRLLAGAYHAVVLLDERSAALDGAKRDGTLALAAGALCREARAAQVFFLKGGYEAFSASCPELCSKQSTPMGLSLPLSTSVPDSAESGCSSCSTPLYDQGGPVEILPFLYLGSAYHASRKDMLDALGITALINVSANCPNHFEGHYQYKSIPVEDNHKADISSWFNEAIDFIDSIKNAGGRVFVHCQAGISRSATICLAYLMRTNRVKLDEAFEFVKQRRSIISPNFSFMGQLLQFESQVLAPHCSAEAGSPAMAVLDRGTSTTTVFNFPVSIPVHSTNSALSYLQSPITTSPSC
Experimental: The PTP-catalyzed hydrolysis of 6,8-difluoro-4-methylumbelliferyl phosphate (DiFMUP) in the presence of the test compound is assayed at 30° C. in a 60 μL 96 well format reaction system in 0.15 M Bis-Tris, pH 6.0 assay buffer having an ionic strength of 150 mM (adjusted with NaCl) and containing 1 mM dithiotreitol and 5% DMSO. […] The nonenzymatic hydrolysis of the substrate was corrected by measuring the control without addition of enzyme. The IC50 value was determined by plotting the relative activity versus inhibitor concentrations and fitting to Equation 1 using the software GraphPad Prism™ (GraphPad Software, Inc.).
as §2

[5] = molecular target: VHR (Homo sapiens, UniProt P51452); test: PTP-catalyzed hydrolysis of DiFMUP, IC50 determination (VHR); settings: DiFMUP at Km, pH 6.0, 30° C.
Chain of VHR (P51452 whole entry): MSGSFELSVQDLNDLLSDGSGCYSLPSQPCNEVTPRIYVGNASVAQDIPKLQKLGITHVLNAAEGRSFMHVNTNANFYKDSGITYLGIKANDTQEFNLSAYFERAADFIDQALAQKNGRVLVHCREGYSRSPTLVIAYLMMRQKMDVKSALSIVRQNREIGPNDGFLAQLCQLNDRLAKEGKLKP
Experimental: as §1, §2

[6] = Table II, DiFMUP at Km, pH 6.0, 30° C.

SMILES | IC50 [1] [µM] | IC50 [2, 6] [µM] | IC50 [3] [µM] | IC50 [4, 6] [µM] | IC50 ([5]; Table I, read-out: IC50) [µM] | IC50 ([5]; Table II, read-out: IC50 VHR) [µM] | IC50 [1, 6] [µM] | IC50 [2] [µM] | IC50 [3, 6] [µM] | IC50 [4] [µM]
O=C1/C(=C/c2cn(-c3ccccc3)nc2-c2ccc(OCc3ccccc3)cc2)SC(=S)N1CCS(=O)(=O)O [Compound 9] | 1.52 | 3.44 | 1.75 | 0.779 | 0.078 | 0.078 |  |  |  | 
O=C1/C(=C/c2cn(-c3ccccc3)nc2-c2ccc(OCc3ccc(Cl)cc3)cc2)SC(=S)N1CCS(=O)(=O)O [Compound 10, (Z)-2-[5-({3-[4-(4-chlorobenzyloxy)phenyl]-1-phenyl-1H-pyrazol-4-yl}methylene)-4-oxo-2-thioxothiazolidin-3-yl]ethane sulfonic acid] |  |  |  | 0.457 | 0.018 | 0.018 | 0.622 | 2.45 | 0.456 | 
O=C1/C(=C/c2cn(-c3ccccc3)nc2-c2ccc(S(=O)(=O)N3CCOCC3)cc2)SC(=S)N1CCS(=O)(=O)O [Compound 14] | 1.16 |  | 0.592 |  | 2.44 | 0.071 |  | 3.37 |  | 0.474
